Source: article PMC8653682, “Anti-Helicobacter pylori Compounds from Oliveria decumbens Vent. through Urease Inhibitory In-vitro and In-silico Studies” (Iranian Journal of Pharmaceutical Research : IJPR, 2021)
≈ marks a conversion by molar mass, not a printed value. Like-named read-outs stand apart in the source and are kept apart here.

Assays:
[1] = target: T1, Jack bean urease (Canavalia ensiformis, UniProt P07374); assay: biochemical; assay type: biochemical
T1 construct: purchased Sigma-Aldrich
T1 sequence (P07374 whole entry, looked up): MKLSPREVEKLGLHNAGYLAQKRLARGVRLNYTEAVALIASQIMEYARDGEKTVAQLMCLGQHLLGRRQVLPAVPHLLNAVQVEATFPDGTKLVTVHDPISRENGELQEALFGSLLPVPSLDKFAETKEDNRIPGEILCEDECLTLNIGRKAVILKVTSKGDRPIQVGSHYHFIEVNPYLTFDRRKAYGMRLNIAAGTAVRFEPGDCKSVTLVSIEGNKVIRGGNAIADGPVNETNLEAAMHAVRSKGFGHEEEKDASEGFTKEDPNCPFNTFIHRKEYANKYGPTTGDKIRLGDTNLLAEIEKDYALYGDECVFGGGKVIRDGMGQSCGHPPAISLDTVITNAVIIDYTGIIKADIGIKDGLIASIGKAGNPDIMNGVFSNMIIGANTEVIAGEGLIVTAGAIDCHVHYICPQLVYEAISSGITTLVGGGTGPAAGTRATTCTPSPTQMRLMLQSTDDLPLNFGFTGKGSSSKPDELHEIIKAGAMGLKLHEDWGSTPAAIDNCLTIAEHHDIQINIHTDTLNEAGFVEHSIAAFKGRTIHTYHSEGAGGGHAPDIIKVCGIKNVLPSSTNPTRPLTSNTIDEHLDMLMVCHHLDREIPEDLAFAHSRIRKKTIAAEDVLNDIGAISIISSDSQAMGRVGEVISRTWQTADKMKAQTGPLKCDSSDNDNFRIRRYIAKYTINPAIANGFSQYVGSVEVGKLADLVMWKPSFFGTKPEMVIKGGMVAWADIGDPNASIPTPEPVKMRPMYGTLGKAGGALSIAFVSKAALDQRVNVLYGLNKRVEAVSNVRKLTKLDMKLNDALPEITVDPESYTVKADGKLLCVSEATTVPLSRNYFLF
Experimental: Urease inhibitory activity was evaluated based on Tanaka et al. report ([18]). Jack bean urease (Sigma-Aldrich, Germany) was used as a surrogate for H. pylori urease. Each well of a 96-well plate contained 25 μL jack bean urease (6U, Sigma-Aldrich) and 25 μL different concentrations of tested materials that were prepared in phosphate buffer (PBS, pH 6.8 ) and DMSO 1% as a co-solvent. After 30 min incubation at room temperature, 200 μL of a stock solution composed of PBS (100 mM), urea (150 mM), and phenol red were added to each well. The absorbance changes were measured at 570 nm by a microplate reader. Hydroxyurea was used as the positive control ([18]).

[2] = test system: bacteria; parameters: method as in earlier work; settings: combination with norfloxacin, ofloxacin and ciprofloxacin; ref 42 (Falcão‐Silva et al.); cited from earlier work
[3] = test system: Staphylococcus aureus ATCC 6538; assay: Antibacterial activity by disc diffusion method, S. aureus; assay type: cell-based; settings: extract/fractions 500 µg/disc, ciprofloxacin 5 µg/disc, penicillin 10 µg/disc
Experimental: (§1) Briefly, overnight cultures of bacteria were used to prepare a bacterial inoculum in sterile normal saline. The bacterial inoculum was standardized to the turbidity of 0.5 McFarland (the density equivalent to 1.5 × 10^8 cfu/mL). The surface of Mueller-Hinton (MH) agar plates was covered by 100 µL of diluted bacterial suspension containing 5 ×10^5 cfu. Different concentrations of the plant extract or fraction were prepared. Sterile blank discs (6.4 mm diameter) containing different concentrations of the plant extract or fractions (15 μL) were placed on the agar plates. The mean inhibition zone diameter was measured after overnight incubation at 37 °C.

[4] = test system: Staphylococcus epidermidis ATCC 12229; assay: Antibacterial activity by disc diffusion method, S. epidermidis; assay type: cell-based; settings: extract/fractions 500 µg/disc, ciprofloxacin 5 µg/disc, penicillin 10 µg/disc
Experimental: as §1

[5] = test system: Escherichia coli ATCC 8739; assay: Antibacterial activity by disc diffusion method, E. coli; assay type: cell-based; settings: extract/fractions 500 µg/disc, ciprofloxacin 5 µg/disc, penicillin 10 µg/disc
Experimental: as §1

[6] = test system: Helicobacter pylori strain RIGLD-HC180; assay: Anti-Helicobacter pylori activity by agar dilution method; assay type: cell-based; settings: RIGLDHC180, 72 h, tested 50 to 2000 μg/mL, read-out: MIC for the growth of Helicobacter pylori
Experimental: Anti-Helicobacter pylori activity of the samples was investigated by an agar dilution method according to our previous study ([17]). […] The Agar dilution method has been standardized previously as an appropriate method to determine minimum inhibitory concentrations (MIC) of water-insoluble and colored plant extracts. […] Growth control plates were included in each experiment. […] All the experiments were performed in triplicate. Plates, including amoxicillin, were used as a positive control ([17]).

For O=C(/C=C/c1ccc(O)cc1)OC[C@H]1O[C@@H](Oc2c(-c3ccc(O)cc3)oc3cc(O)cc(O)c3c2=O)[C@H](O)[C@@H](O)[C@@H]1O [Tiliroside, Kaempferol-3-O-(6''-O-trans-coumaryl) glucoside], the IC50 [1] is given as 0.45 ± 0.05 mM and the “Lowering of antibiotic MIC values in combination with tiliroside” value [2] is given as 2-16 fold.

With penicillin the “Inhibition zone, S. aureus” value [3] was 24 mm, the “Inhibition zone, S. epidermidis” value [4] was 26 mm and the “Inhibition zone, E. coli” value [5] was 10 mm.

For NC(=O)NO [Hydroxyurea], the IC50 ([1]; isolated compounds, jack bean urease, read-out: Urease inhibitory IC50 (mM) ± SD) was 0.78 ± 0.01 mM and the “Urease inhibitory IC50 (µg/mL) ± SD” value ([1]; total extract and fractions, jack bean urease) was 59.51 ± 0.01 µg/mL.

Work on Cc1ccc(C(C)C)cc1O [Carvacrol] yielded an IC50 [1] of 0.7 ± 0.01 mM.

Compound Cc1ccc(C(C)C)c(O)c1 [Thymol] has an IC50 [1] of 1.33 ± 0.06 mM.

CC1(C)S[C@@H]2[C@H](NC(=O)[C@H](N)c3ccc(O)cc3)C(=O)N2[C@H]1C(=O)O [Amoxicillin, amoxicillin] showed an MIC [6] of 0.5 µg/mL (≈ 1.37 µM).
